# Literature values in PubChem BioAssay AID1259409 (Chemical Carcinogenesis Research Information System (CCRIS), 2018).
# Tested on: rodent chemically induced tumor inhibition, incidence and multiplicity
# Experiment: CCRIS tumor inhibitor studies
# Details: Route [Inhibitor]: ORAL, Species: RAT
compound,measurement,setting,value
C[C@]12CC[C@H](O)CC1=CC[C@@H]1[C@@H]2CC[C@]2(C)C(=O)CC[C@@H]12,"tumour outcome (control, treated, inhibition, significance)","Carcinogen: CYPROTERONE ACETATE [427-51-0], TESTOSTERONE PROPIONATE [57-85-2], N-METHYL-N-NITROSOUREA [684-93-4], Carcinogen: CYPROTERONE ACETATE [427-51-0], TESTOSTERONE PROPIONATE [57-85-2], N-METHYL-N-NITROSOUREA [684-93-4], Dose [Inhibitor]: 1000 MG/KG IN DIET FOR 13 WK BEGINNING 1 WK PRIOR TO MNU DOSE (STUDY DURATION: 14 MONTHS), Strain/Sex: WISTAR-UNILEVER/MALE, Target Tissue: Type of Lesion: PROSTATE AND SEMINAL VESICLE: ADENOCARCINOMA OR CARCINOSARCOMA, Dose [Carcinogen]: 50 MG/KB BW CA BY GAVAGE 1X/D FOR 21 D, 100 MG/KG BW TP SC 1X/D FOR 3 D BEGINNING 1 D POST LAST CA DOSE, 50 MG/KG BW MNU, Dose [Carcinogen]: 50 MG/KB BW CA BY GAVAGE 1X/D FOR 21 D, 100 MG/KG BW TP SC 1X/D FOR 3 D BEGINNING 1 D POST LAST CA DOSE, 50 MG/KG BW MNU, Promoter: TESTOSTERONE (CRYSTALLINE)","27/32 (84%), 27/34 (79%), 6%, not significant"
same,"tumour outcome (control, treated, inhibition, significance)","Carcinogen: CYPROTERONE ACETATE [427-51-0], TESTOSTERONE PROPIONATE [57-85-2], N-METHYL-N-NITROSOUREA [684-93-4], Carcinogen: CYPROTERONE ACETATE [427-51-0], TESTOSTERONE PROPIONATE [57-85-2], N-METHYL-N-NITROSOUREA [684-93-4], Dose [Inhibitor]: 2000 MG/KG IN DIET FOR 13 WK BEGINNING 1 WK PRIOR TO MNU DOSE (STUDY DURATION: 14 MONTHS), Strain/Sex: WISTAR-UNILEVER/MALE, Target Tissue: Type of Lesion: PROSTATE AND SEMINAL VESICLE: ADENOCARCINOMA OR CARCINOSARCOMA, Dose [Carcinogen]: 50 MG/KB BW CA BY GAVAGE 1X/D FOR 21 D, 100 MG/KG BW TP SC 1X/D FOR 3 D BEGINNING 1 D POST LAST CA DOSE, 30 MG/KG BW MNU, Dose [Carcinogen]: 50 MG/KB BW CA BY GAVAGE 1X/D FOR 21 D, 100 MG/KG BW TP SC 1X/D FOR 3 D BEGINNING 1 D POST LAST CA DOSE, 30 MG/KG BW MNU, Promoter: TESTOSTERONE (CRYSTALLINE)","24/30 (80%), 14/29 (48%), 40%, p<0.05"
same,"tumour outcome (control, treated, inhibition, significance)","Carcinogen: CYPROTERONE ACETATE [427-51-0], TESTOSTERONE PROPIONATE [57-85-2], N-METHYL-N-NITROSOUREA [684-93-4], Carcinogen: CYPROTERONE ACETATE [427-51-0], TESTOSTERONE PROPIONATE [57-85-2], N-METHYL-N-NITROSOUREA [684-93-4], Dose [Inhibitor]: 2000 MG/KG IN DIET FOR 13 WK BEGINNING 1 WK PRIOR TO MNU DOSE (STUDY DURATION: 14 MONTHS), Strain/Sex: WISTAR-UNILEVER/MALE, Target Tissue: Type of Lesion: PROSTATE AND SEMINAL VESICLE: ADENOCARCINOMA OR CARCINOSARCOMA, Dose [Carcinogen]: 50 MG/KB BW CA BY GAVAGE 1X/D FOR 21 D, 100 MG/KG BW TP SC 1X/D FOR 3 D BEGINNING 1 D POST LAST CA DOSE, 50 MG/KG BW MNU, Dose [Carcinogen]: 50 MG/KB BW CA BY GAVAGE 1X/D FOR 21 D, 100 MG/KG BW TP SC 1X/D FOR 3 D BEGINNING 1 D POST LAST CA DOSE, 50 MG/KG BW MNU, Promoter: TESTOSTERONE (CRYSTALLINE)","27/32 (84%), 22/32 (69%), 18%, not significant"
same,"tumour outcome (control, treated, inhibition, significance)","Carcinogen: CYPROTERONE ACETATE [427-51-0], TESTOSTERONE PROPIONATE [57-85-2], N-METHYL-N-NITROSOUREA [684-93-4], Carcinogen: CYPROTERONE ACETATE [427-51-0], TESTOSTERONE PROPIONATE [57-85-2], N-METHYL-N-NITROSOUREA [684-93-4], Dose [Inhibitor]: 2000 MG/KG IN DIET FOR 13 WK BEGINNING 20 WK POST MNU DOSE (STUDY DURATION: 14 MONTHS), Strain/Sex: WISTAR-UNILEVER/MALE, Target Tissue: Type of Lesion: PROSTATE AND SEMINAL VESICLE: ADENOCARCINOMA OR CARCINOSARCOMA, Dose [Carcinogen]: 50 MG/KB BW CA BY GAVAGE 1X/D FOR 21 D, 100 MG/KG BW TP SC 1X/D FOR 3 D BEGINNING 1 D POST LAST CA DOSE, 30 MG/KG BW MNU, Dose [Carcinogen]: 50 MG/KB BW CA BY GAVAGE 1X/D FOR 21 D, 100 MG/KG BW TP SC 1X/D FOR 3 D BEGINNING 1 D POST LAST CA DOSE, 30 MG/KG BW MNU, Promoter: TESTOSTERONE (CRYSTALLINE)","24/30 (80%), 15/30 (50%), 38%, p<0.05"
same,"tumour outcome (control, treated, inhibition, significance)","Carcinogen: CYPROTERONE ACETATE [427-51-0], TESTOSTERONE PROPIONATE [57-85-2], N-METHYL-N-NITROSOUREA [684-93-4], Carcinogen: CYPROTERONE ACETATE [427-51-0], TESTOSTERONE PROPIONATE [57-85-2], N-METHYL-N-NITROSOUREA [684-93-4], Dose [Inhibitor]: 2000 MG/KG IN DIET FOR 13 WK BEGINNING 40WK POST MNU DOSE (STUDY DURATION: 14 MONTHS), Strain/Sex: WISTAR-UNILEVER/MALE, Target Tissue: Type of Lesion: PROSTATE AND SEMINAL VESICLE: ADENOCARCINOMA OR CARCINOSARCOMA, Dose [Carcinogen]: 50 MG/KB BW CA BY GAVAGE 1X/D FOR 21 D, 100 MG/KG BW TP SC 1X/D FOR 3 D BEGINNING 1 D POST LAST CA DOSE, 30 MG/KG BW MNU, Dose [Carcinogen]: 50 MG/KB BW CA BY GAVAGE 1X/D FOR 21 D, 100 MG/KG BW TP SC 1X/D FOR 3 D BEGINNING 1 D POST LAST CA DOSE, 30 MG/KG BW MNU, Promoter: TESTOSTERONE (CRYSTALLINE)","24/30 (80%), 18/30 (60%), 25%, not significant"
same,"tumour outcome (control, treated, inhibition, significance)","Carcinogen: DIETHYLNITROSAMINE, 55-18-5, ACETYLAMINOFLUORENE, 53-96-3, Carcinogen: DIETHYLNITROSAMINE, 55-18-5, ACETYLAMINOFLUORENE, 53-96-3, Dose [Inhibitor]: 0, 0.6% IN DIET FOR A MAXIMUM OF 15 WK BEGINNING 15 WK POST INITIATION (STUDY DURATION: 56 WK), Strain/Sex: F344/MALE, Target Tissue: Type of Lesion: LIVER: CARCINOMA, Dose [Carcinogen]: 150 MG/KG DEN ONCE THEN 2 WK LATER 0.02% AAF IN DIET FOR 15 D WITH A PARTIAL HEPATECTOMY MIDWAY THROUGH TREATMENT, Promoter: NONE USED","8/8 (100%), 1/4 (25%), 75%, not calculated"
same,"tumour outcome (control, treated, inhibition, significance)","Carcinogen: DIETHYLNITROSAMINE, 55-18-5, N-METHYL-N-NITROSOUREA, 684-93-5, N-BUTYL-N-(4-HYDROXYBUTYL)NITROSAMINE, 3817-11-6, 1,2-DIM, Carcinogen: DIETHYLNITROSAMINE, 55-18-5, N-METHYL-N-NITROSOUREA, 684-93-5, N-BUTYL-N-(4-HYDROXYBUTYL)NITROSAMINE, 3817-11-6, 1,2-DIM, Dose [Inhibitor]: 0, 0.3% IN DIET FOR 23 WK BEGINNING 1 WK POST CARCINOGEN TREATMENT (STUDY DURATION: 28 WK), Strain/Sex: F344/MALE, Target Tissue: Type of Lesion: LARGE INTESTINE: ADENOMA, Dose [Carcinogen]: 100 MG/KG BW DEN ONCE, 20 MG/KG BW MNU ONCE ON DAYS 6,9, AND 12, 0.05% BBN IN DRINKING WATER FOR FIRST TWO WK, 40 MG/KG, Dose [Carcinogen]: 100 MG/KG BW DEN ONCE, 20 MG/KG BW MNU ONCE ON DAYS 6,9, AND 12, 0.05% BBN IN DRINKING WATER FOR FIRST TWO WK, 40 MG/KG, Promoter: NONE USED","3/20 (15%), 4/20 (20%), -33%, not significant"
